Where two headings read alike, the source gives them in different places.
Tests used:
ovine COX-1 (oCOX-1) = target: T1, ovine COX-1 (oCOX-1) (Ovis aries, UniProt P05979); assay: LCMS-based COX-1 enzymatic inhibition assay (PGE2 quantification); type: biochemical
T1 construct: purchased Cayman Chemicals (Ann Arbor, Mich.)
T1 sequence (P05979 25-600): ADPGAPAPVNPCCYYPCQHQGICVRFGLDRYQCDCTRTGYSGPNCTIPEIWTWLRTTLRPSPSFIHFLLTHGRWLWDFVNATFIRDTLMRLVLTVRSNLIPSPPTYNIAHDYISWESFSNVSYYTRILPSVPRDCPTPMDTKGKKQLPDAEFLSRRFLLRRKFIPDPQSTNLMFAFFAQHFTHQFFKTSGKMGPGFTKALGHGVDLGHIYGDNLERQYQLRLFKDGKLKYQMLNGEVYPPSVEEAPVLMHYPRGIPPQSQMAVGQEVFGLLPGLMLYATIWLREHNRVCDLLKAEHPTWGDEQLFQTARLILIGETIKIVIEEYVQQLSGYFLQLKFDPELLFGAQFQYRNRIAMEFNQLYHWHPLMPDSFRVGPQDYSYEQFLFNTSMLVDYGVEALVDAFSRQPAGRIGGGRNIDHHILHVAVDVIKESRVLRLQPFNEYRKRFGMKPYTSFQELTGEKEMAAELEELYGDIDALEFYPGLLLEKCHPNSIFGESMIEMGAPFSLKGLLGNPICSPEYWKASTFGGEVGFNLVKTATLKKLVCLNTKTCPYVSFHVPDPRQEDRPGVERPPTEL
Experimental: We have adapted a previously reported cyclooxygenase enzymatic assay utilizing LCMS quantification of PGE2 as the product of COX-1 and COX2 catalyzed conversion of arachidonic acid to evaluate the binding properties of newly synthesized ligands [Cao, 2011]. These optimized and miniaturized (384-well plates) LCMS-based COX-1 and COX2 enzymatic assays enabled us to quickly evaluate newly synthesized ligands for COX2 binding affinity and selectivity vs COX-1. Using a shorter ligand-enzyme incubation time in the LCMS assay (2 minutes vs 10 minutes) also permitted us to prioritize ligands with faster binding kinetics. Considering the relatively slow on-rate kinetics of known coxibs, due to their 3-step binding mechanism [Marnett, 2009], we believe that optimizing this critical parameter will be key to the successful development of a COX2 PET tracer. Using these enzymatic assays, we have evaluated>200 newly synthesized ligands against COX2 and >20 ligands against COX-1. Another critical property necessary for a good PET radiotracer is to have low non-specific binding (NSB) to increase the free fraction and maximize the signal to noise ratio. This property can be evaluated using in-vitro protein binding assays, and we have now evaluated>50 newly synthesized ligands in mouse, rat and human plasma protein binding (PPB) assays as well as >15 ligands in a mouse brain protein binding (BPB) assay.
Ovine COX-1 (oCOX-1), ovine COX2 (oCOX2), human recombinant COX2 (hCOX2), arachidonic acid, PGE2, d4-PGD2, and […] (labeled with deuterium atoms at positions 3 and 4) were purchased from Cayman Chemicals (Ann Arbor, Mich.). The cofactors (−)epinephrine and hematin, and the COX inhibitors indomethacin, resveratrol and diclofenac were purchased from Sigma-Aldrich (St. Louis, Mo.). Celecoxib was purchased from 3B PharmaChem International (Wuhan, China). All organic solvents were HPLC grade or better and were purchased from Thermo Fisher (Hanover Park, Ill.). Formic acid was purchased from EMD Chemicals (San Diego, Calif.). Purified water was prepared by using a Millipore Milli-Q purification system (Millipore, Billerica, Mass.). All other chemicals and solvents were ACS reagent grade, unless stated otherwise.
In an Eppendorf tube, 146 μL of 100 mM Tris.HCl (pH 8.0) buffer, 2 μL of 100 μM hematin (co-factor) and 10 μL of 40 mM L-epinephrine (co-factor) were mixed at room temperature. Next, 20 μL of Tris.HCl (pH 8.0) buffer containing 0.2 μg COX2 or 0.1 μg COX-1 (approximately 1 unit of enzyme; 1 unit COX utilizes 1 nmol 02/mg/min at 37° C.) was added, and the solution was incubated at room temperature for 2 min. A 2 μL aliquot of the COX inhibitor in DMSO was added to the enzyme solution and preincubated at 37° C. for 10 min. Negative controls were identical except that 2 μL aliquots of DMSO without inhibitor were used instead.
Each COX reaction was initiated by adding 20 μL of arachidonic acid in Tris.HCl (pH 8.0) buffer to give a final concentration of 5 μM; and the reaction was terminated after 2 min by adding 20 μL of 2.0 M HCl. The surrogate standards d4-PGE2 and d4-PGD2 (10 μL aliquot of 50 ng/mL solution in methanol) were added to correct for errors or degradation during sample handling and for variation in injection volume or instrument response during LC-MS-MS. After 30 min, PGE2, PGD2 and their surrogate standards were extracted from each incubation mixture using 800 μL hexane/ethyl acetate (50:50, v/v). The organic phase was removed, evaporated to dryness, and reconstituted in 100 μL methanol/water (50:50, v/v) for analysis using LC-MS-MS.
The concentration of PGE2 in each sample was measured using LC-MS-MS, and the percent of COX inhibition by each test solution was determined by comparing the amount of PGE2 produced in the experiment with that produced in the negative control incubation. The formation of PGD2 was measured for quality control purposes, since the levels of PGD2 should be proportional to those of PGE2. […]

[1] = target: T2, human recombinant COX2 (hCOX2) (UniProt P35354); assay: LCMS-based COX2 enzymatic inhibition assay (PGE2 quantification); type: biochemical; design: COX2 2 minutes pge2/pge2d4 area ratio Avg; other: 2 minutes; readout pge2/pge2d4 area ratio; average; COX2 2 minutes pge2/pge2d4 area ratio Avg; LLE; average LLE; COX2 2 minutes pge2 area (counts) Avg; readout pge2 area (counts); other: 2 min; "ovine COX2 (oCOX2), human recombinant COX2 (hCOX2)"; conditions: 2 minutes; for COX2 2 minutes pge2/pge2d4 area ratio Avg. LLE / COX2 2 minutes pge2 area (counts) Avg. LLE: average LLE; for IC50: average
T2 sequence (P35354 1-604): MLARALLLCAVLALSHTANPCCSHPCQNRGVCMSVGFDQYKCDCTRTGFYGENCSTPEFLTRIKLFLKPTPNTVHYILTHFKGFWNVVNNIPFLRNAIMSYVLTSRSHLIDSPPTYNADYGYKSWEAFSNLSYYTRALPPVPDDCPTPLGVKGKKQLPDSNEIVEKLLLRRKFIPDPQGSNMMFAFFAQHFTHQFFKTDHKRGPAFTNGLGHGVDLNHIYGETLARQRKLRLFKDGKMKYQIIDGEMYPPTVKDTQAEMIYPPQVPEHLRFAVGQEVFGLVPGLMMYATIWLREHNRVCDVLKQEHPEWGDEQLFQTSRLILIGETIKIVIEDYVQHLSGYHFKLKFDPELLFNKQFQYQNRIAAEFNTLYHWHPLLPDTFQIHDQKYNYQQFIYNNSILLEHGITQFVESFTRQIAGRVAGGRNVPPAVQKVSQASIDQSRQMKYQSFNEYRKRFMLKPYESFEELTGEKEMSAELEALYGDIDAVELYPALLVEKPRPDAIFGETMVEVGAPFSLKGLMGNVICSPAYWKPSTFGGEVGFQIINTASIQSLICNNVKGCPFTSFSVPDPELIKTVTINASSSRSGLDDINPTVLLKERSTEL
Outline: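 Ovine COX-1 (0.1 μg) or human recombinant COX2 (0.2 μg) in 100 mM Tris.HCl pH 8.0 with hematin and epinephrine, preincubated with inhibitor 10 min at 37 °C. Reaction with 5 μM arachidonic acid stopped after 2 min with HCl; PGE2 quantified by LC-MS-MS. IC50 from 12 concentrations in triplicate.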

[2] = 10 minutes, head of this section not shown, inferred
[3] = 10 minutes, pge2 area (counts), head of this section not shown, inferred
[4] = readout pge2/pge2d4 area ratio, read-out: COX2 2 minutes pge2/pge2d4 area ratio Avg. IC50
[5] = readout pge2 area (counts), read-out: COX2 2 minutes pge2 area (counts) Avg. IC50
[6] = 10 minutes, pge2 area (counts), head of this section not shown, inferred, read-out: COX1 10 minutes pge2 area (counts) Avg. IC50
[7] = 10 minutes, readout pge2/pge2d4 area ratio, average, read-out: COX1 10 minutes pge2/pge2d4 area ratio Avg. IC50

COc1ccc(NCc2ccoc2)nc1-c1ccc(S(C)(=O)=O)cc1 [Compound 66]
IC50 (ovine COX-1 (oCOX-1)): 52000 nM | COX1 10 minutes pge2/pge2d4 area ratio Avg. LLE (ovine COX-1 (oCOX-1); [2]): 1.364 | COX1 10 minutes pge2 area (counts) Avg. LLE (ovine COX-1 (oCOX-1); [3]): 1.364 | COX2 2 minutes pge2/pge2d4 area ratio Avg. LLE ([1]; readout pge2/pge2d4 area ratio): 4.554 | IC50 [1, 4]: 37.3 nM | COX2 2 minutes pge2 area (counts) Avg. LLE ([1]; readout pge2 area (counts)): 4.505 | IC50 [1, 5]: 42 nM

CS(=O)(=O)c1ccc(-c2cc3ccoc3c(NCc3cccs3)n2)cc1 [Compound 67]
COX1 10 minutes pge2/pge2d4 area ratio Avg. LLE (ovine COX-1 (oCOX-1); [2]): 0.3787 | COX1 10 minutes pge2 area (counts) Avg. LLE (ovine COX-1 (oCOX-1); [3]): 0.343 | IC50 (ovine COX-1 (oCOX-1); [6]): 21200 nM | IC50 (ovine COX-1 (oCOX-1); [7]): 19600 nM | COX2 2 minutes pge2/pge2d4 area ratio Avg. LLE ([1]; readout pge2/pge2d4 area ratio): 3.0886 | IC50 [1, 4]: 38.9 nM | COX2 2 minutes pge2 area (counts) Avg. LLE ([1]; readout pge2 area (counts)): 3.016 | IC50 [1, 5]: 45.2 nM

CS(=O)(=O)c1ccc(-c2ncc3ccn(Cc4cccs4)c3n2)cc1 [Compound 71]
COX1 10 minutes pge2/pge2d4 area ratio Avg. LLE (ovine COX-1 (oCOX-1); [2]): 0.04679 | IC50 (ovine COX-1 (oCOX-1); [7]): 49300 nM | COX2 2 minutes pge2/pge2d4 area ratio Avg. LLE ([1]; readout pge2/pge2d4 area ratio): 3.165 | IC50 [1, 4]: 41.2 nM | COX2 2 minutes pge2 area (counts) Avg. LLE ([1]; readout pge2 area (counts)): 3.167 | IC50 [1, 5]: 41.6 nM

CS(=O)(=O)c1ccc(-n2ccc3ccc(Nc4ccccc4)nc32)cc1 [Compound 72]
COX1 10 minutes pge2/pge2d4 area ratio Avg. LLE (ovine COX-1 (oCOX-1); [2]): 0.2541 | COX1 10 minutes pge2 area (counts) Avg. LLE (ovine COX-1 (oCOX-1); [3]): 0.02014 | IC50 (ovine COX-1 (oCOX-1); [6]): 30200 nM | IC50 (ovine COX-1 (oCOX-1); [7]): 17600 nM | COX2 2 minutes pge2/pge2d4 area ratio Avg. LLE ([1]; readout pge2/pge2d4 area ratio): 2.94 | IC50 [1, 4]: 41.4 nM | COX2 2 minutes pge2 area (counts) Avg. LLE ([1]; readout pge2 area (counts)): 2.995 | IC50 [1, 5]: 34.2 nM

CS(=O)(=O)c1ccc(-c2cccc(NCc3ccc[nH]3)n2)cc1 [Compound 73]
COX1 10 minutes pge2/pge2d4 area ratio Avg. LLE (ovine COX-1 (oCOX-1); [2]): 2.183 | COX1 10 minutes pge2 area (counts) Avg. LLE (ovine COX-1 (oCOX-1); [3]): 2.127 | IC50 (ovine COX-1 (oCOX-1); [6]): 17100 nM | IC50 (ovine COX-1 (oCOX-1); [7]): 15000 nM | COX2 2 minutes pge2/pge2d4 area ratio Avg. LLE ([1]; readout pge2/pge2d4 area ratio): 4.8 | IC50 [1, 4]: 42.9 nM | COX2 2 minutes pge2 area (counts) Avg. LLE ([1]; readout pge2 area (counts)): 4.74 | IC50 [1, 5]: 45.2 nM

CS(=O)(=O)c1ccc(-c2nc(NCc3cccs3)cnc2C(F)(F)F)cc1 [Compound 76]
COX1 10 minutes pge2/pge2d4 area ratio Avg. LLE (ovine COX-1 (oCOX-1); [2]): 1.461 | IC50 (ovine COX-1 (oCOX-1); [7]): 31600 nM | COX2 2 minutes pge2/pge2d4 area ratio Avg. LLE ([1]; readout pge2/pge2d4 area ratio): 4.278 | IC50 [1, 4]: 48.6 nM | COX2 2 minutes pge2 area (counts) Avg. LLE ([1]; readout pge2 area (counts)): 4.291 | IC50 [1, 5]: 48.5 nM

Cn1cccc1CNc1cccc(-c2ccc(S(C)(=O)=O)cc2)n1 [Compound 77]
COX1 10 minutes pge2 area (counts) Avg. LLE (ovine COX-1 (oCOX-1); [3]): 1.289 | IC50 (ovine COX-1 (oCOX-1); [6]): 40900 nM | COX2 2 minutes pge2/pge2d4 area ratio Avg. LLE ([1]; readout pge2/pge2d4 area ratio): 4.259 | IC50 [1, 4]: 48.6 nM | COX2 2 minutes pge2 area (counts) Avg. LLE ([1]; readout pge2 area (counts)): 4.246 | IC50 [1, 5]: 53.8 nM
